What was measured:
[1] = system: Ac-α-tubulin (substrate for HDAC6); assay: Western blot of Ac-α-tubulin in HCT-116 cells; assay type: cell-based; details: HCT-116, 5−20 μM, 24 h
Description: Since HDACs regulate the acetylation status of histone and nonhistone proteins in cells, the acetylation levels of histone H3 (a known substrate for HDACs 1, 2, and 3) and α-tubulin (a known substrate for HDAC6) are frequently used as markers of cellular HDAC activity. […] HCT-116 cells were incubated with compound 10e (5−20 μM) for 24 h, and the levels of acetylation of histone H3 and α-tubulin were detected by the Western blot. […]
with 75% cold ethanol at 4 °C overnight. After that, fixed cells were washed with PBS. Then, cells were isolated by centrifugation and stained with propidium iodide (KeyGEN BioTECH, China) for 30 min. The samples were measured using flow cytometry and analyzed by Flowjo software.
Section S 1.6 Western blot assay
Total cell lysates from cultured HCT-116 cells after treatment with compound 10e as mentioned earlier were obtained by lysing the cells in ice-cold RIPA buffer with protease and phosphatase inhibitor and stored at -20°C for future use. The protein concentrations were quantified by the Bradford method (Bio-Rad) using a Multimode Varioscan instrument (Thermo Fischer Scientific). […]
The in vivo antitumor activity of compound 10e was evaluated in the mouse colon carcinoma cell line CT-26 in BALB/c mice as described previously. […]

[2] = Cell viability assay, HK2 normal renal cells; details: human
Description: On the basis of the IDO1 and HDAC activities, we explored the proliferation inhibitory activities of the selected compounds against four solid tumor cells lines.

HCT-116 cells = assay: Cell viability (MTT) assay, HCT-116; details: Homo sapiens, HCT-116, 48 h, read-out: Antiproliferative IC50, HCT-116
Description: Section S 1.3 Cell viability assays
Cell Bank at the Chinese Academy of Sciences.
DMEM and FBS were obtained from Gibco-Thermo (BRL Co. Ltd., USA).
another 48 h. The cells were stained with 10 μl of MTT at incubator for approximately 4 h. The medium was discarded and replaced by 100 mL DMSO. The O.D. value was read at 570/630 nm with a spectrophotometer.

[3] = biological target: T1, HDAC6 human recombinant enzyme (Homo sapiens, UniProt Q9UBN7); assay: HDAC6 enzyme inhibitory activity assay; assay type: biochemical
T1 sequence (Q9UBN7 1-1215): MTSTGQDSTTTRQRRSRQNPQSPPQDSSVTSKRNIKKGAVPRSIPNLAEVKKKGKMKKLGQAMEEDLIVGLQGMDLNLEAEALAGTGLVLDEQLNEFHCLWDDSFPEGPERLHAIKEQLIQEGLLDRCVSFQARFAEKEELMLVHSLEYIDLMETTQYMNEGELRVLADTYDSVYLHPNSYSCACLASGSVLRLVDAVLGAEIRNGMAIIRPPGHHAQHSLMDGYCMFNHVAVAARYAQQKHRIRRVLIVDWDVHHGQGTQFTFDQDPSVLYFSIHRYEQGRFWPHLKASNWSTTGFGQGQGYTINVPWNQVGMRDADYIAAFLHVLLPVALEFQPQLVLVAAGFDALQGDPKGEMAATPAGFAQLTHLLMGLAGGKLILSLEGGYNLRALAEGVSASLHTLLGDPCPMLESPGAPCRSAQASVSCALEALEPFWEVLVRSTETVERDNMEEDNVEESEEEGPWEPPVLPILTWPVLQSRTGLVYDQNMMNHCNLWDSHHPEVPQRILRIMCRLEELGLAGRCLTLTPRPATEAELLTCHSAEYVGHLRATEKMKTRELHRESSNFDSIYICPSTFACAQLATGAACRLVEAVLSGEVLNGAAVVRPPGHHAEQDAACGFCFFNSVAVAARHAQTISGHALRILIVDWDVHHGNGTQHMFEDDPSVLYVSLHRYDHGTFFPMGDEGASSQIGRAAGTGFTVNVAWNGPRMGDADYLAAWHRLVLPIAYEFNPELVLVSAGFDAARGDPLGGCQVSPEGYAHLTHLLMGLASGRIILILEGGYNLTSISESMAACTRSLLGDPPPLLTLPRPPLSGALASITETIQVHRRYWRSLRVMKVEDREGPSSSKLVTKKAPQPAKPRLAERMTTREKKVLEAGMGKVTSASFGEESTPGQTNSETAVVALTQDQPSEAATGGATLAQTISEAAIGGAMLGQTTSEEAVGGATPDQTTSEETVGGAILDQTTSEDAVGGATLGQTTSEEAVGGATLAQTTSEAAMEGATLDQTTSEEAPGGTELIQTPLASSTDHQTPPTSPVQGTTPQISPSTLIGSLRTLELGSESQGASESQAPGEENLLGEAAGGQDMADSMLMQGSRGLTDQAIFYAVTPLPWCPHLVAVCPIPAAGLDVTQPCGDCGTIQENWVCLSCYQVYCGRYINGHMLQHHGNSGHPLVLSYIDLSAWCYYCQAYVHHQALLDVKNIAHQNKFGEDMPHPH
Description: Section S1. Biological assays
Section S 1.1. HDAC6 enzyme inhibitory activity assay
Preparation of Master Mix. Trichostatin A in DMSO, Fluorogenic HDAC substrate 3, and HDAC6 human recombinant enzyme were diluted to 20 μM, 200 μM, and 7 ng/uL, respectively, using HDAC Assay Buffer.BSA was dissolved in 1 mL of distilled water to make a BSA solution at a concentration of 1 mg/mL. A certain amount of Fluorogenic HDAC substrate 3, BSA and HDAC Assay Buffer were mixed well to make a master mix, and 40 μL of the master mix was added to each well of a 96-well plate. In the drug administration group, 5 μL of Trichostatin A in DMSO and HDAC6 human recombinant enzyme were added to each well. 5 μL of HDAC Assay Buffer and HDAC6 human recombinant enzyme were added to each well of the blank group, and incubated for 30 min at 37 °C. Finally, 50 μL of undiluted HDAC substrate 3, BSA and HDAC Assay Buffer were added to each well. 50 μL of 2x HDAC Developer was added to each well and incubated at room temperature for 15 min. The samples were read in an enzyme marker with an excitation wavelength in the range of 350-380 nm and an emission light in the range of 440-460 nm.
The values of fluorescence intensities were read and the inhibition rate and IC50 were calculated. […]

O=C(CCCCCCNc1ccc(NC(=O)c2cnc3scc(-c4ccc(Br)cc4)n23)cc1)NO [Compound 10e, 3-(4-Bromophenyl)-N-{4-[(7-(hydroxyamino)-7-oxoheptyl)amino]phenyl}imidazo[2,1-b]thiazole-5-carboxamide]
Ac-α-tubulin levels [1]: markedly increased | IC50 [2]: > 80 µM | IC50 (HCT-116 cells): 16.4 ± 3.76 µM | IC50 [3]: 0.0582 µM | Selectivity Index (SI) = HDAC1 IC50 value/HDAC6 IC50 value ([3]; HDAC1/HDAC6): 18.51 | inhibition at 1 µM ([3]; read-out: HDAC6 Inhibition Rate at 1 μM): 90.5%

— paper PMC12195740, “Discovery of Novel Imidazothiazole-Based Hydroxamic Acid Derivatives as Potent Indoleamine 2,3-Dioxygenase 1 and Histone Deacetylase 6 Dual Inhibitors” (Molecules, 2025)
